Laboratory results reported in patent US20080114047A1 (priority 2003, published 2008).
“And” between values parts separate entries of the source, which are not always exact repeats. Equal entries are not always repeated. Structures can show the parent of a compound that is named as a salt. Where two headings read alike, the source gives them in different places.

Key:
[1] = test system: Mycobacterium tuberculosis; experiment: Compounds tested against Mycobacterium tuberculosis (MIC90); assay type: cell-based
[2] = test system: L. donovani axenic amastigotes; experiment: In vitro anti-leishmania activity (IC50 vs. L. donovani axenic amastigotes); assay type: cell-based; conditions: Leishmania donovani
[3] = test system: Aspergillus fumigatus; experiment: Anti-fungal data: Aspergillus fumigatus; assay type: cell-based; conditions: for MFC / MIC80: strain DUMC 168.95; for MIC: strain DUMC 168.95, read-out: Aspergillus. Fumigatus (DUMC 168.95) MIC100
[4] = in vitro
[5] = test system: Plasmodium falciparum; experiment: Anti-protozoan data: P. falcip. IC50; assay type: cell-based; conditions: read-out: P. falcip. IC50
[6] = test system: Trypanosoma brucei rhodesiense; experiment: Anti-protozoan data: T.b.r. IC50; assay type: cell-based; conditions: read-out: T.b.r. IC50
[7] = test system: Candida albicans; experiment: Anti-fungal data: Candida albicans; assay type: cell-based; conditions: for MFC / MIC80: strain A39; for MIC: strain A39, read-out: Candida albicans (A39) MIC100
[8] = test system: DNA; experiment: DNA binding ΔTm
[9] = test system: Trypanosoma cruzi; experiment: Anti-protozoan data: T. cruzi IC50; assay type: cell-based; conditions: read-out: T. cruzi IC50
[10] = test system: Cryptococcus neoformans; experiment: Anti-fungal data: Cryptococcus neoformans; assay type: cell-based; conditions: for MFC / MIC80: strain H99; for MIC: strain H99, read-out: Cryptococcus neoformans (H99) MIC100
[11] = Tables VI(a), VI(c), read-out: Leishmania donovani IC50
[12] = axenic amastigotes, Tables I-V, read-out: IC50 vs. L. donovani

Row | Compound | MIC90 ([1]; read-out: M. tb. MIC90) | IC50 [2, 11] | IC50 [2, 12] | MFC [3] | MIC80 [3] | MIC [3] | IC50 [4] | IC50 ([5]; Tables VI(a), VI(c)) | IC50 ([6]; Tables VI(a), VI(c)) | MFC [7] | MIC80 [7] | MIC [7] | DNA binding Δ Tm ([8]; Tables VI(a), VI(c)) | IC50 ([9]; Tables VI(a), VI(c)) | melting point | further results
1 | CC(C)NC(=N)c1ccc(OCCCOc2cccc(-c3cc4cc(C(=N)NC(C)C)ccc4o3)c2)cc1.Cl.Cl [Compound 33, 2-(3-(3-(4-(N-Isopropylcarbamimidoyl)phenoxy)propoxy)phenyl)-N-isopropylbenzofuran-5-carboxamidine dihydrochloride] | < 0.62 µg/mL and < 1 µM | 4490 ± 560 nM | 4490 ± 560 nM | > 100 µg/mL | 10 µg/mL | 100 µg/mL | 26500 nM | 61.3 nM | 547 nM | 10 µg/mL | ≤ 1 µg/mL | 10 µg/mL | 14.8 | 93600 nM | 205 to 208 °C | –
2 | Cl.Cl.c1cc(C2=NCCN2)ccc1OCCCCCCOc1ccc(-c2cc3cc(C4=NCCN4)ccc3o2)cc1 [Compound 55, 2-(2-(4-(6-(4-(4,5-Dihydro-1H-imidazol-2-yl)phenoxy)hexyloxy)phenyl)benzofuran-5-yl)-4,5-dihydro-1H-imidazole dihydrochloride] | > 82.7 µg/mL and > 128 µM | 3320 ± 970 nM | – | – | 10 µg/mL | > 100 µg/mL | 1480 nM | 116 nM | 360 nM | 10 µg/mL | 10 µg/mL | 10 µg/mL | 14.4 | 1830 nM | 275 to 277 °C | –
3 | Cl.Cl.c1cc(OCCCCCCOc2ccc(C3=NCCN3)cc2)cc(-c2cc3ccc(C4=NCCN4)cc3o2)c1 [Compound 67, 2-(2-(3-(6-(4-(4,5-Dihydro-1H-imidazol-2-yl)phenoxy)hexyloxy)phenyl)benzofuran-6-yl)-4,5-dihydro-1H-imidazole dihydrochloride] | 18 µg/mL and 29.4 µM | 43500 ± 690 nM | 43500 ± 690 nM | > 100 µg/mL | 12.5 µg/mL | 12.5 µg/mL | 1790 nM | 41.2 nM | 681 nM | 1.56 µg/mL | 1.56 µg/mL | 1.56 µg/mL | – | 3670 nM | 182 to 186 °C | MFC [10]: 1.56 µg/mL; MIC80 [10]: 0.781 µg/mL; MIC [10]: 1.56 µg/mL
4 | CC(C)NC(=N)c1ccc(OCCCCCOc2ccc(-c3cc4cc(C(=N)NC(C)C)ccc4o3)cc2)cc1.Cl.Cl [Compound 51, 2-(4-(5-(4-(N-Isopropylcarbamimidoyl)phenoxy)pentyloxy)phenyl)-N-isopropylbenzofuran-5-carboxamidine dihydrochloride] | 0.9 µg/mL and 1.43 µM | 2080 ± 640 nM | – | > 100 µg/mL | 100 µg/mL | 100 µg/mL | 20500 nM | 193 nM | 302 nM | 100 µg/mL | 100 µg/mL | 100 µg/mL | 18.7 | 7680 nM | 260 to 263 °C | –
5 | Cl.Cl.N=C(N)c1ccc(OCCCOc2cccc(-c3cc4cc(C(=N)N)ccc4o3)c2)cc1 [Compound 32, 2-(3-(3-(4-Carbamimidoylphenoxy)propoxy)phenyl)benzofuran-5-carboxamidine dihydrochloride] | 0.53 µg/mL and 1 µM | 3420 ± 900 nM | 3420 ± 900 nM | > 100 µg/mL | 10 µg/mL | 100 µg/mL | 10400 nM | 39.7 nM | 907 nM | 10 µg/mL | ≤ 1 µg/mL | 10 µg/mL | 18.7 | 16100 nM | 175 to 178 °C | –
6 | Cl.Cl.N=C(N)c1ccc(OCCCCOc2ccc(-c3cc4cc(C(=N)N)ccc4o3)cc2)cc1 [Compound 47, 2-(4-(4-(4-Carbamimidoylphenoxy)butoxy)phenyl)benzofuran-5-carboxamidine dihydrochloride] | 31.8 µg/mL and 59.8 µM | 610 ± 530 nM | 610 ± 530 nM | > 100 µg/mL | 10 µg/mL | 100 µg/mL | 1300 nM | 141 nM | 164 nM | 10 µg/mL | ≤ 1 µg/mL | 10 µg/mL | 11.8 | 2490 nM | 310 °C | –
7 | CC(C)NC(=N)c1ccc2oc(CCCCc3cc4cc(C(=N)NC(C)C)ccc4o3)cc2c1 [Compound 21, dihydrochloride] | 0.07 µg/mL and 0.13 µM | 12700 ± 2270 nM | – | – | > 100 µg/mL | > 100 µg/mL | > 163000 nM | 9.8 nM | 98.8 nM | > 100 µg/mL | 10 µg/mL | 10 µg/mL | 6.60 | 69100 nM | – | MFC [10]: > 100 µg/mL; MIC80 [10]: 100 µg/mL; MIC [10]: 100 µg/mL
8 | N=C(NO)c1ccc(OCCCOc2ccc(-c3cc4cc(C(=N)NO)ccc4o3)cc2)cc1 [Compound 182, 2-(4-(3-(4-(N-Hydroxycarbamimidoyl)phenoxy)propoxy)phenyl)-N-hydroxybenzofuran-5-carboxamidine] | 0.65 µg/mL and 1.2 µM | 5020 ± 930 nM | – | – | – | – | 2640 nM | 1400 nM | 1340 nM | – | – | – | 1.10 | 1700 nM | – | –
9 | CC(C)NC(=N)c1ccc(OCCCCOc2ccc(-c3cc4cc(C(=N)NC(C)C)ccc4o3)cc2)cc1.Cl.Cl [Compound 48, 2-(4-(4-(4-(N-Isopropylcarbamimidoyl)phenoxy)butoxy)phenyl)-N-isopropylbenzofuran-5-carboxamidine dihydrochloride] | 59.4 µg/mL and 95.6 µM | 2970 ± 160 nM | – | > 100 µg/mL | 10 µg/mL | 100 µg/mL | 6920 nM | 302 nM | 1110 nM | 100 µg/mL | 100 µg/mL | 100 µg/mL | 13.3 | 21000 nM | 305 °C | –
10 | CC(C)NC(=N)c1ccc(OCCCCCOc2cccc(-c3cc4cc(C(=N)NC(C)C)ccc4o3)c2)cc1.Cl.Cl [Compound 39, 2-(3-(5-(4-(N-Isopropylcarbamimidoyl)phenoxy)pentyloxy)phenyl)-N-isopropylbenzofuran-5-carboxamidine dihydrochloride] | 1.12 µg/mL and 1.8 µM | 6860 ± 2100 nM | 6860 ± 2100 nM | > 100 µg/mL | 10 µg/mL | 100 µg/mL | 10100 nM | 123 nM | 452 nM | 100 µg/mL | 10 µg/mL | 100 µg/mL | 20.8 | 26000 nM | 225 to 227 °C | –
11 | N=C(NO)c1ccc(-c2cc3cc(C(=N)NO)ccc3o2)cc1 [Compound 178, 2-(4-(N-Hydroxycarbamimidoyl)phenyl)-N-hydroxybenzofuran-5-carboxamidine] | – | – | – | – | – | – | > 235000 nM | – | – | – | – | – | – | – | – | MIC90 ([1]; Table VII(b), read-out: M. tb MIC90): > 128 µM; IC50 ([2]; read-out: L. Donovani IC50): > 100000 nM; IC50 [5]: 783 nM; IC50 [6]: 23600 nM; DNA binding Δ Tm [8]: 4.50; IC50 [9]: > 235000 nM
12 | CC(C)NC(=N)c1ccc(OCCCOc2ccc(-c3cc4cc(C(=N)NC(C)C)ccc4o3)cc2)cc1.Cl.Cl [Compound 45, 2-(4-(3-(4-(N-Isopropylcarbamimidoyl)phenoxy)propoxy)phenyl)-N-isopropylbenzofuran-5-carboxamidine dihydrochloride] | 1.12 µg/mL and 1.86 µM | 1560 ± 580 nM | – | – | 100 µg/mL | > 100 µg/mL | 45600 nM | 41.8 nM | 40.9 nM | 10 µg/mL | 10 µg/mL | 10 µg/mL | – | 70400 nM | 301 to 302 °C | –
13 | Cl.Cl.c1cc(C2=NCCN2)ccc1OCCCCOc1ccc(-c2cc3cc(C4=NCCN4)ccc3o2)cc1 [Compound 49, 2-(2-(4-(4-(4-(4,5-Dihydro-1H-imidazol-2-yl)phenoxy)butoxy)phenyl)benzofuran-5-yl) -4,5-dihydro-1H-imidazole dihydrochloride] | – | 9210 ± 2250 nM | 9210 ± 2250 nM | – | 100 µg/mL | > 100 µg/mL | 2880 nM | 64.1 nM | 374 nM | – | 100 µg/mL | > 100 µg/mL | 18.8 | 4510 nM | 291 to 293 °C | –
14 | Cl.Cl.N=C(N)c1ccc(OCCCCCOc2ccc(-c3cc4cc(C(=N)N)ccc4o3)cc2)cc1 [Compound 50, 2-(4-(5-(4-Carbamimidoylphenoxy)pentyloxy)phenyl)benzofuran-5-carboxamidine dihydrochloride] | 1.01 µg/mL and 1.84 µM | – | – | – | 6.25 µg/mL | > 100 µg/mL | 4190 nM | 313 nM | 369 nM | 3.12 µg/mL | 0.39 µg/mL | 0.78 µg/mL | 12.7 | 4710 nM | 290 °C (dec.) | MFC [10]: 12.5 µg/mL; MIC80 [10]: 0.39 µg/mL; MIC [10]: 0.78 µg/mL
